Data: US7524669B2 (priority 2002, dated 2009)
Like-named read-outs stand apart in the source and are kept apart here.

Columns and labels:
[1] = molecular target: T1, AQP9 (Rattus norvegicus, UniProt P56627); assay type: cell-based, Saccharomyces cerevisiae
[2] = test system: S. cerevisiae HD9 (fps1Δ acr3Δ ycf1Δ); assay type: cell-based, Saccharomyces cerevisiae; details: strain HD9 (FPS1 deleted), 5 μM metalloid, FIG. 4
[3] = test system: AQP7; details: HD9 pAQP7
[4] = molecular target: T1, AQP9; details: for effect of AQP9 expression on resistance/sensitivity of strain HD9: HD9 pAQP9, galactose induced, FIG. 3
[5] = test system: S. cerevisiae HD9 (fps1Δ acr3Δ ycf1Δ); details: HD9 vs MG102 (acr3Δ ycf1Δ), FIG. 3
[6] = test system: S. cerevisiae strains W303, W303 pYCF1, MG100, MG100 pYCF1; assay: Metal ion resistance assay (growth in liquid SD medium), Example 1
[7] = test system: S. cerevisiae strains W303, W303 pYCF1, MG100, MG100 pYCF1; assay: Arsenite transport (accumulation) assay in intact cells, Example 1; assay type: cell-based, Saccharomyces cerevisiae; details: FIG. 2

T1 sequence (P56627 whole entry): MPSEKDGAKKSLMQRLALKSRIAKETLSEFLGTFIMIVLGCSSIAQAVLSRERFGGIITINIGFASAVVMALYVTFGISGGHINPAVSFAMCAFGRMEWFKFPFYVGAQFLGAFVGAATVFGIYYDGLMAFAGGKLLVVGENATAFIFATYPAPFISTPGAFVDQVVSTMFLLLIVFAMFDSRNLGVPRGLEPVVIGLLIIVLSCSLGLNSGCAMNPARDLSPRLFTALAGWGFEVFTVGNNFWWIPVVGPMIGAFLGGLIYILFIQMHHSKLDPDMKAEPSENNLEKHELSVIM

O.O.O.O=C([O-])[C@H]([O-])[C@@H]([O-])C(=O)[O-].O=C([O-])[C@H]([O-])[C@@H]([O-])C(=O)[O-].[K+].[K+].[Sb+3].[Sb+3] [antimonite, potassium antimonyl tartrate]
transport of radioactive metalloid into cells [1]: facilitates transport
transport of radioactive metalloid into cells [2]: low rates of transport
effect of AQP7 on a plasmid on resistance of strain HD9 [3]: no effect on resistance
effect of AQP9 expression on resistance/sensitivity of strain HD9 [4]: reversed
resistance of strain HD9 compared to strain MG102 (growth) [5]: relatively resistant

O=[As]O [arsenite, sodium arsenite]
transport of radioactive metalloid into cells ([1]; HD9 expressing AQP9, 5 μM metalloid, FIG. 4): accumulated more ^73As(OH)3 than the parental strain MG102
transport of radioactive metalloid into cells [2]: reduced
effect of AQP7 on a plasmid on resistance of strain HD9 [3]: no effect on resistance
effect of AQP9 expression on resistance/sensitivity of strain HD9 [4]: reversed
resistance of strain HD9 compared to strain MG102 (growth) [5]: resistant
arsenite sensitivity (growth) ([6]; strain MG100 (ACR3Δ), FIG. 1): extremely arsenic sensitive
arsenite resistance (growth) ([6]; strain MG100 pYCF1, FIG. 1): restores arsenite resistance
arsenite resistance (growth) ([6]; strain W303 (wild type ACR3), FIG. 1): resistant to higher concentrations
arsenite resistance (growth) ([6]; strain W303 pYCF1, Ycf1p expressed on a plasmid, FIG. 1): no effect on resistance
accumulation of 73As(OH)3 in intact cells ([7]; strain MG100, 1.0 μM arsenite): accumulates more ^73As(III) than the wild type
accumulation of 73As(OH)3 in intact cells ([7]; strain MG100 pYCF1, 1.0 μM arsenite): accumulate much higher amounts of arsenite
accumulation of 73As(OH)3 in intact cells ([7]; strain W303, 1.0 μM arsenite): accumulate the least arsenic
accumulation of 73As(OH)3 in intact cells ([7]; strain W303 pYCF1, 1.0 μM arsenite): increases the amount of radioactive arsenite accumulated

[Cl][Cd][Cl] [cadmium, cadmium chloride]
effect of AQP9 expression on resistance/sensitivity of strain HD9 [4]: no effect on sensitivity

OCC(O)CO [glycerol]
inhibition of 73As(OH)3 uptake by glycerol [1]: reduced the uptake
effect of glycerol on AQP9-related arsenite sensitivity in growth assays [4]: small reversal of the AQP9-related arsenite sensitivity

sodium arsenate
effect of AQP9 expression on resistance/sensitivity of strain HD9 [4]: no effect on sensitivity
